Test results: patent US20230027361A1, “METTL3 MODULATORS” (priority 2019, published 2023)
Read-outs that look alike come from different tables or passages of the source.

Tests used:
[1] = molecular target: PRMT5-MEP50 (Homo sapiens, UniProt O14744); assay: PRMT5 Assay (PRMT5 biochemical assay)
Method in brief: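 Radiometric methyltransferase read-out: after 60 min reaction, excess unlabelled SAM (15 μM) stops turnover and biotinylated H4 peptide (100 nM) carrying 3H-methyl from 250 nM 3H-SAM is captured on streptavidin flashplates (2 h, 25° C) for scintillation counting. Enzyme, 2.5 nM PRMT5-MEP50, was preincubated 5 min with compound in pH 8.0 Tris buffer with DTT and Tween.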

[2] = molecular target: METTL3/METTL14 (Homo sapiens, UniProt Q86U44); assay: METTL3-14 Standard Enzyme Assay (METTL3 biochemical assay)
Method in brief: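 Tritium transfer from ³H-SAM (100 nM) to biotinylated RNA (100 nM) captured on streptavidin flashplates and counted by scintillation. Enzyme complex (2.5 nM) with compound, 5 min preincubation, 30 min reaction at ambient temperature, HEPES pH 7.5 buffer, stopped by excess unlabeled SAM.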

[3] = tested on: MOLM-13 cells; assay: MOLM-13 96 Hour Cell Proliferation Assay; type: cell-based; conditions: Homo sapiens
Method in brief: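 MOLM-13 cells in RPMI 1640 with 10% FBS were plated overnight at 37 °C, then exposed to compound dilutions at 0.25% DMSO final for 96 h. Viability was read by CellTiter-Glo luminescence, normalised to staurosporine (100% death) and DMSO (0% death) controls, and IC50 was fitted by 4-parameter logistic regression.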

[4] = tested on: m6A in cellular mRNA of MOLM-13 cells; assay: m6A-mRNA LC-MS/MS Assay (m6A cellular assay); type: cell-based; conditions: Homo sapiens, MOLM-13, read-out: m^6A IC50
Method: Cells were harvested by centrifugation followed by mRNA extraction using DIRECT Dynabeads mRNA DIRECT kit (Life Technologies). mRNA was quantified on NanoDrop spectrophotometer (Thermo Fisher Scientific) and digested into single nucleosides using Nucleoside Digestion Mix (New England Biolabs). […] Quantification is performed in comparison with the standard curve, obtained from pure nucleoside standards (Selleck Chemicals) running with the same batch of samples. Percentage m^6A in cellular mRNA is calculated as 100*(m^6A/A).

[5] = tested on: MOLM-13 cells; assay: MOLM-13 48 Hour Cell Proliferation Assay; type: cell-based; conditions: Homo sapiens
Method in brief: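 IC50 derived by 4-parameter logistic regression of CellTiter-Glo luminescence, scaled between DMSO (0% death) and staurosporine (100% death) controls. Compounds applied for 48 h at 37 °C as 10-point, 4-fold dilutions, 0.25% DMSO final, to MOLM-13 cells pre-seeded overnight in RPMI 1640 plus 10% FBS.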

[6] = molecular target: METTL1/WDR4 (Homo sapiens, UniProt Q9UBP6); assay: METTL1 Assay (METTL1 biochemical assay)
Method in brief: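 Radiometric methyltransfer by METTL1/WDR4 (6.25 nM f.c., 5 min preincubation) at ambient temperature in HEPES pH 7.5, KCl, MgCl2, DTT; started with 25 nM 3′-biotinylated RNA and 60 nM 3H-SAM, run 20 min, quenched with 15 μM cold SAM. Product captured on streptavidin flashplates (2 h, 25° C), counted by scintillation.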

[7] = PRMT5 biochemical assay, read-out: PRMT5 IC50
[8] = METTL3 biochemical assay, read-out: METTL3 IC50
[9] = read-out: METTL1 IC50, METTL1 biochemical assay
[10] = read-out: PRMT5 IC50, PRMT5 biochemical assay
[11] = read-out: METTL3 IC50, METTL3 biochemical assay
[12] = METTL1 biochemical assay, read-out: METTL1 IC50

METTL1/WDR4, sequence (Q9UBP6 whole entry, species assumed): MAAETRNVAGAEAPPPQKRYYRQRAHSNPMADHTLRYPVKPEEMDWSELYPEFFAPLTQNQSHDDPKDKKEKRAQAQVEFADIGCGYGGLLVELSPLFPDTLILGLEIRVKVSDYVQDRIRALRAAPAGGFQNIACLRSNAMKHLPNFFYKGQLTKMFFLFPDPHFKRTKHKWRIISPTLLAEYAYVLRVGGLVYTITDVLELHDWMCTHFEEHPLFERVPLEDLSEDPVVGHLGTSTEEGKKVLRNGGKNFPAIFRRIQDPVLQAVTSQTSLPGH
METTL1/WDR4, sequence (P57081 whole entry partner, species assumed): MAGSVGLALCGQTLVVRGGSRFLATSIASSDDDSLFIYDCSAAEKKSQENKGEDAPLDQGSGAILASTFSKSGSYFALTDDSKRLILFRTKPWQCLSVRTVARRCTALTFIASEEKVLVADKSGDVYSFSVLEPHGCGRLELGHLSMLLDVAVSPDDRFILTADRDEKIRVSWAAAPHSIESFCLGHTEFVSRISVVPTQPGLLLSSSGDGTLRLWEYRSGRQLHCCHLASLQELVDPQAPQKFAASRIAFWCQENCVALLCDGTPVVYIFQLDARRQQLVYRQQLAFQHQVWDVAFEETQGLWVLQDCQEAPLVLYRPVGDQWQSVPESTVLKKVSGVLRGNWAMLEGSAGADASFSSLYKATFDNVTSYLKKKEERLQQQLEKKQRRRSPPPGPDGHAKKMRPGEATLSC
METTL3/METTL14, sequence (Q86U44 whole entry, species assumed): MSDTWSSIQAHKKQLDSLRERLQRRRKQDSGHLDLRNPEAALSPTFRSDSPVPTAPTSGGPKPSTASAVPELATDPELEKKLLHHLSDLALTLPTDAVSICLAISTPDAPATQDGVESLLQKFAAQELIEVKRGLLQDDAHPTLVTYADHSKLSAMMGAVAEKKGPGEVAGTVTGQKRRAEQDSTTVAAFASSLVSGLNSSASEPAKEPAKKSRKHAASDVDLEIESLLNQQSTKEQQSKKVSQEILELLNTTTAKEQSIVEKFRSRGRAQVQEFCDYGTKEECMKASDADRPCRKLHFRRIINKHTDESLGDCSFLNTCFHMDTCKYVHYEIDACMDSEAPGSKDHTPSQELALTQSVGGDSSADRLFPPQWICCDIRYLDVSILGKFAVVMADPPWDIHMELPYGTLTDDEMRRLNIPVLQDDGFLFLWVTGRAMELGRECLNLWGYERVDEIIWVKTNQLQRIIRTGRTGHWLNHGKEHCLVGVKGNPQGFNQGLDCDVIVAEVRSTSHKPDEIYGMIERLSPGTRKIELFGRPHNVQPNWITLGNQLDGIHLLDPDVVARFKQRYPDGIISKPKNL
METTL3/METTL14, sequence (Q9HCE5 whole entry partner, species assumed): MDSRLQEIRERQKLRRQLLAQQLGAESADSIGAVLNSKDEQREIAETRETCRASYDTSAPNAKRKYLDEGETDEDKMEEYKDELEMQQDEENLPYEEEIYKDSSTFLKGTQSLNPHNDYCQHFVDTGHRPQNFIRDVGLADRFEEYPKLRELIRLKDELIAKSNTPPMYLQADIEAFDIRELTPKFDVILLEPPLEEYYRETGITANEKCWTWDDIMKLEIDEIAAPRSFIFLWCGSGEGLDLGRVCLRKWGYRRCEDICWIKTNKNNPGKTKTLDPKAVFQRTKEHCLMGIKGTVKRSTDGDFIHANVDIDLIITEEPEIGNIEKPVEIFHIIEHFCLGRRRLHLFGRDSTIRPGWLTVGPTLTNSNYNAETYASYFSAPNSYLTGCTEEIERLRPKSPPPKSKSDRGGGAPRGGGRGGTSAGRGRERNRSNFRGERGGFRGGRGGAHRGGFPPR
PRMT5-MEP50, sequence (O14744 whole entry): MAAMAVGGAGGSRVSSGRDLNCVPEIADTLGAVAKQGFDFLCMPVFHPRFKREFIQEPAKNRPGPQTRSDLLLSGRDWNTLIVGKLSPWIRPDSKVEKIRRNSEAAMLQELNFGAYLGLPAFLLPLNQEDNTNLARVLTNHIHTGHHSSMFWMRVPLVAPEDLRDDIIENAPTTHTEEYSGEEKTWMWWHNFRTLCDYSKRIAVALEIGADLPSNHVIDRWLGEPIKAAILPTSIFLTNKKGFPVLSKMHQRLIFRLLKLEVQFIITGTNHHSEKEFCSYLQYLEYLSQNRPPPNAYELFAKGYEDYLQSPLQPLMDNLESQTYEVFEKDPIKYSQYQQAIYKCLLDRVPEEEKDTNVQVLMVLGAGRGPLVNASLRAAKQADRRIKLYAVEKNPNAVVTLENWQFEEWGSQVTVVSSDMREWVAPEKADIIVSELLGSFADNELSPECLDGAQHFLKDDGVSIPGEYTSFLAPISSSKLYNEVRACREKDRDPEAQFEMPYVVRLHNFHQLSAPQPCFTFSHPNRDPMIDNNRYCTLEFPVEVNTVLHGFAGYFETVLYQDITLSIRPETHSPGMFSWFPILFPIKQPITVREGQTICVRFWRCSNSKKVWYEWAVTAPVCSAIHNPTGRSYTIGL
PRMT5-MEP50, sequence (Q9BQA1 whole entry partner): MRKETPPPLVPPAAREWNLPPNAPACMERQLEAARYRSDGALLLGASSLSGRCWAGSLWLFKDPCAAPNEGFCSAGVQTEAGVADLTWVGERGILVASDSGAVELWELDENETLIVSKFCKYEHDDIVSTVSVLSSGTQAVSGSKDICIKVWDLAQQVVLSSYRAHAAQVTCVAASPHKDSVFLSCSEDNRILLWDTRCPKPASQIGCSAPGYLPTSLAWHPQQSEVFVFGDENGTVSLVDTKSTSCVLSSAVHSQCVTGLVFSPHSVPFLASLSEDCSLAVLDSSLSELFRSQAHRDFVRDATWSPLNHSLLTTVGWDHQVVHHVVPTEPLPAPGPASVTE

Row | Structure (SMILES) | IC50 [1, 7] | IC50 [2, 8] | IC50 ([3]; MOLM-13, 96 h) | IC50 [4] | IC50 [5] | IC50 [6] | IC50 [6, 9] | IC50 [1, 10] | IC50 [2, 11] | IC50 [6, 12] | IC50 [1] | IC50 [2] | IC50 [3]
1 | CNc1ccc2ccc(OC[C@H]3O[C@@H](n4cc(Cl)c5c(N)ncnc54)[C@@H](F)[C@@H]3O)cc2n1 [I-45, (2R,3R,4S,5R)-5-(4-amino-5-chloro-7H-pyrrolo[2,3-d]pyrimidin-7-yl)-4-fluoro-2-(((2-(methylamino)quinolin-7-yl)oxy)methyl)tetrahydrofuran-3-ol] | 10 to 100 nM | < 10 nM | 1000 to 10000 nM | 1000 to 10000 nM | 1000 to 10000 nM | > 1000 nM | – | – | – | – | – | – | –
2 | CNc1ccc2ccc(CC[C@H]3C[C@@H](n4cc(C5CCCCC5)c5c(N)ncnc54)[C@H](O)[C@@H]3O)cc2n1 [I-59] | < 10 nM | < 10 nM | < 1000 nM | 1000 to 10000 nM | 1000 to 10000 nM | – | > 1000 nM | – | – | – | – | – | –
3 | CNc1ccc2ccc(OC[C@H]3O[C@@H](n4cc(-c5ccc(C)o5)c5c(N)ncnc54)[C@@H](F)[C@@H]3O)cc2n1 [I-148] | – | – | < 1000 nM | < 1000 nM | < 1000 nM | – | – | 100 to 1000 nM | < 10 nM | > 1000 nM | – | – | –
4 | Cn1ccc(-c2cn([C@@H]3O[C@H](COc4ccc5ccc(N6CC(O)C6)nc5c4)[C@@H](O)[C@@H]3F)c3ncnc(N)c23)n1 [I-171] | – | – | – | 1000 to 10000 nM | 1000 to 10000 nM | – | – | – | – | – | > 1000 nM | < 10 nM | 1000 to 10000 nM
5 | CNc1ccc2ccc(OC[C@H]3O[C@@H](n4cc(Cl)c5c(N)ncnc54)C[C@@H]3O)cc2n1 [I-48] | 100 to 1000 nM | < 10 nM | 1000 to 10000 nM | 1000 to 10000 nM | > 10000 nM | – | > 1000 nM | – | – | – | – | – | –
6 | CNc1ccc2ccc(OC[C@H]3O[C@@H](n4cc(-c5ncco5)c5c(N)ncnc54)[C@@H](F)[C@@H]3O)cc2n1 [I-150] | – | – | – | < 1000 nM | < 1000 nM | – | – | 10 to 100 nM | < 10 nM | – | – | – | < 1000 nM
7 | Nc1ncnc2c1c(-n1cccn1)cn2[C@@H]1O[C@H](COc2ccc3ccc(N4CCC4)nc3c2)[C@@H](O)[C@@H]1F [I-222] | – | – | – | < 1000 nM | < 1000 nM | – | – | – | – | – | > 1000 nM | < 10 nM | < 1000 nM
8 | CNc1ccc2ccc(OC[C@H]3O[C@@H](n4cc([C@H]5CCCO5)c5c(N)ncnc54)[C@@H](F)[C@@H]3O)cc2n1 [I-151] | 100 to 1000 nM | < 10 nM | < 1000 nM | 1000 to 10000 nM | 1000 to 10000 nM | – | – | – | – | – | – | – | –
9 | Nc1ncnc2c1ccn2[C@@H]1C[C@H](CCc2ccccn2)[C@@H](O)[C@H]1O [I-118] | 100 to 1000 nM | > 1000 nM | > 10000 nM | > 10000 nM | > 10000 nM | – | > 1000 nM | – | – | – | – | – | –
10 | CNc1ccc2ccc(OC[C@H]3O[C@@H](n4cc(-c5cc[nH]n5)c5c(N)ncnc54)[C@@H](F)[C@@H]3O)cc2n1 [I-228] | – | – | < 1000 nM | 1000 to 10000 nM | < 1000 nM | – | – | – | – | > 1000 nM | 100 to 1000 nM | < 10 nM | –
